A short description of data set [1]: Extraction of anhydromevalonolactone with different organic solvents (extract efficiency and partition coefficient Kd, solvent/water). Type of data set: physicochemical. The source says: Purification of anhydromevalonolactone also was studied by extraction with different organic solvents (Table 1). Approximately 96% of the anhydromevalonolactone was extracted when chloroform was applied at a 1:1 volume ratio. […] NMR analysis indicated the anhydromevalonolactone was in the lactone form, instead of equilibrating with its hydroxyacid form (FIG. 6).
The fermentation broth from the bioreactor was harvested by centrifuge, and then was discolored by activated charcoal. The test tubes were filled with 5 mL fermentation broth and concentrated H3PO4 or H2SO4, then autoclaved for one hour to make anhydromevalonate, and then the concentrations of mevalonate and anhydromevalonate were measured by HPLC. Immiscible organic solvents were used to extraction anhydromevalonate from the reaction mixture.

Data set [2] is described as follows: liquid-liquid solvent extraction at equal volume ratio. The following applies: not told.
Data set [3] is described as follows: liquid-liquid solvent extraction at equal volume ratio, HPLC quantification. The note with it: not told.

As to `CC1=CC(=O)OCC1` [Anhydromevalonolactone, anhydromevalonolactone], the Anhydromevalonolactone extract efficiency in data set [1] (solvent Benzene) is listed as 65.26%; in data set [1] (solvent CHC13 (chloroform), 1:1 volume ratio) it was 96.14%; in data set [1] (solvent CHC13 (chloroform), 1:1 volume ratio, listed as anhydromevalonolactone), “Approximately 96%”; in data set [1] (solvent DIBK) it was 44.15%; in data set [1] (solvent MIBK), 79.90%; in data set [1] (solvent Oley), 35.56%. Moreover, the Anhydromevalonolactone extract efficiency in data set [1] (solvent ethyl acetate) amounted to 79.67%. The “partition coefficient (Kd)” value in data set [2] is 25 concentration ratio (Kd); in data set [3], 24.89 concentration ratio (Kd).
